Values of other authors in US20110251275A1, “OMEGA-3 FATTY ACIDS FOR REDUCTION OF LP-PLA2 LEVELS” (priority 2006, published 2011).

Tested on: Lp-PLA2
Conditions: for reduction of Lp-PLA2: Tsimihodimos et al. 2002, patients treated

| SMILES | reduced Lp-PLA2 levels (O'Donoghue et al. 2006) [%] | reduction of Lp-PLA2 |
| --- | --- | --- |
| CC(C)c1c(C(=O)Nc2ccccc2)c(-c2ccccc2)c(-c2ccc(F)cc2)n1CC[C@@H](O)C[C@@H](O)CC(=O)O [atorvastatin] | 20 | 28-42% |
| CC(C)OC(=O)C(C)(C)Oc1ccc(C(=O)c2ccc(Cl)cc2)cc1 [fenofibrate, 2-[4-(4-chlorobenzoyl)phenoxy]-2-methyl-propanoic acid, 1-methylethyl ester] | – | 22-28% |
